This is an account of results in patent publication US20240116885A1, “BENZOTHIAZOLE AND QUINOLINE DERIVATIVES AND THEIR USE” (Shanghai Yao Yuan Biotechnology Co., Ltd., priority 2020, published 2024).

Structures can show the parent of a compound that is named as a salt.

One assay has as its target ALPK1 (Homo sapiens (Human), UniProt Q96QP1). Kind of assay: ALPK1 in vitro kinase assay (HTRF, TIFA phosphorylation). The following applies: ADP-Heptose activated ALPK1. The format is biochemical. The protocol:
ALPK1 kinase activity was measured in an in vitro assay using ADP-Heptose as the ALPK1 ligand and activator of its kinase activity and TIFA protein as the ALPK1 phosphorylation substrate. Since phosphorylated TIFA proteins oligomerize, Homogeneous Time-Resolved Fluorescence (HTRF) was used to measure protein:protein interaction between HA-tagged TIFA proteins as an indicator of TIFA phosphorylation.
In brief, dose-response studies were performed with HEK293 cells cultured in Dulbecco's Modified Eagle Medium (DMEM) supplemented 10% fetal bovine serum (FBS, Hyclone™) containing antibiotics (pen/strep, G418) in 384-well assay plates. Each well contained 0.1 mg TIFA, ALPK1 (2 nM final concentration in reaction mixture) and kinase buffer (100 mM of HEPES pH 7.4, 4 mM DTT, 40 mM MgCl2, 20 mM of β-Glycerol phosphate disodium salt, 0.4 mM of Na3VO4, 0.16 mg/mL). Titrations of the test compounds were prepared in dimethylsulphoxide (DMSO). The reaction was initiated by addition of ATP and ADP-Heptose.
For HTRF, samples were incubated with a Tb cryptate-labeled anti-HA antibody for capturing HA-tagged proteins according to the manufacturer's instructions (PerkinElmer™, CisBio™) and the fluorescence signal was quantified (Tecan Infinite F NANO+). HTRF signals were calculated as the HTRF ratio (ratio of fluorescence measured at 665 nm and 620 nm)×104 (thereby using the signal at 620 nm as an internal standard).
IC50 values were determined using 3- or 4-parameter logistic equation using GraphPad Prism version 6.00. The reference compound, A027, was used as a positive control for each plate.
On the technique in general: TR-FRET usually uses a lanthanide donor and a delayed reading to cut background.

Assay [1] relates to ALPK1-dependent NFκB reporter gene activation. Kind of assay: NFκB gene reporter alkaline phosphatase assay in HEK293 G9 cells. The following applies: Homo sapiens; HEK293 G9 cells stimulated with D-glycero-D-manno-6-fluoro-heptose-1β-S-ADP. It counts as cell-based. The protocol:
An alkaline phosphatase reporter assay system was used to measure inhibition of ALPK1-dependent NFκB reporter gene activation. Briefly, HEK293 cells stably expressing an NF-kB reporter (referred to herein as “G9 cells”) were maintained in DMEM as described above. For the assay, cells were seeded into 96-well plates at a density of 10,000 cells/well in Freestyle™ 293 Expression Medium (ThermoFisher), and allowed to attach overnight. Cells were pretreated with serially diluted compounds for 30 min and then stimulated with D-glycero-D-manno-6-fluoro-heptose-1β-S-ADP. […] NFkB gene activation was detected using the chromogenic substrate, para-nitrophenyl phosphate (pNPP) according to the manufacturer's protocols (pNPP Phosphatase Assay, Beyotime Biotechnology).

A further assay deals with T237M hALPK1 mutant (Homo sapiens (Human), UniProt Q96QP1, T237M). Kind of assay: Inhibition of IL-8 secretion in HEK293 cells (A2) stably expressing T237M hALPK1 mutant. It counts as cell-based. The following applies: 40 hours with compound, IL-8 ELISA, relative to wild-type HEK293 cells, read-out: Half maximal inhibitory concentration (IC50) of IL-8 secretion in cells expressing T237M mutant. The text has this:
(§1) Activating mutations in ALPK1 are associated with diseases and disorders such as cancer, spiroandenoma, spiroandenocarcinoma, ROSAH syndrome, and PFAPA syndrome. We conducted further experiments to evaluate the ability of representative compounds to inhibit ALPK1 in the context of two activating mutations, T237M and V1092A. In preliminary experiments we determined that IL-8 protein secretion was elevated in cells transiently transfected with human ALPK1 expression vectors containing each of these activating mutations. Accordingly, we used IL-8 secretion as an indicator of activated ALPK1 inhibition in cells expressing these mutations.
(§2) HEK293 cells were cultured as described above prior to transient transfection with either empty vector or an expression vector encoding (i) human ALPK1 (hALPK1), (ii) hALPK1 with the T237M activating mutation (hALPK1-T237M) (iii) hALPK1 with the V1092A activating mutation (hALPK1-V1092A), or (iv) a kinase dead ALPK1 mutant (hALPK1-T237M-D1194S). Transfection was performed according to manufacturer's protocols (Lipofectamine™ 3000, ThermoFisher). Transfected cells were selected, seeded onto 96-well plates and treated with serial dilutions of the test compounds for 6.5 hr. Following treatment, cell viability was determined using a luminescent cell viability assay (Cell Counting-Lite Assay or “CCL Assay” from Vazyme Biotech Co., Ltd.) and cell free supernatants were collected and analyzed for IL-8 protein by IL-8 ELISA as described above. […] As shown in the figure, very little IL-8 was detectable in cells transfected with any of the empty vector, hALPK1, or the kinase dead hALPK1 mutant. In contrast, both of the activating mutations in hALPK1 induced significant IL-8 secretion.
Next, we tested a representative set of compounds for inhibition of IL-8 secretion in cells expressing each of the activating ALPK1 mutants, T237M and V1092A. […] For the T237M mutant study, we produced an HEK293 cell line (“A2”) stably expressing the T237M hALPK1 mutant. A2 cells were cultured in the presence of test compound for 40 hours total. Fresh medium and compound were added at 24 hours. Cell viability and IL-8 secretion were determined 16 hours after the second addition of compound, using the CCL assay and IL-8 ELISA as described above.
Background: ELISA stands for enzyme-linked immunosorbent assay.

The target of a further assay is hALPK1-V1092A (Homo sapiens (Human), UniProt Q96QP1, V1092A). Kind of assay: Inhibition of IL-8 secretion in HEK293 cells transiently transfected with hALPK1-V1092A. The format is cell-based. The following applies: transient transfection, 24 hours with compound, IL-8 ELISA, relative to wild-type HEK293 cells; read-out: Half maximal inhibitory concentration (IC50) of IL-8 secretion in cells expressing V1092A mutant.
From the text: as §1, §2
For the V1092A mutant study shown in Table 4, HEK293 cells were transiently transfected with hALPK1-V1092A or hALPK1 (wildtype) expression vectors and then treated with test compounds for 24 hours. Fresh medium and compound were added at 18 hours.

Assay [2] concerns Female MRL/MpJ-faslpr/J mice. Kind of assay: Efficacy study in SLE animal model. The format is in vivo, mouse. Particulars: 50 mg/kg PO QD. As to the method: A mouse model of systemic lupus erythematosus (SLE) was used to evaluate the ability of ALPK1 inhibitors to treat this condition. Female MRL/MpJ-faslpr/J mice were treated with test compound (T007) for 9 weeks. At about 13 weeks of age (study day 0), female mice were randomized into two treatment groups of 10 mice per group, and daily (QD) oral (PO) treatment with vehicle (5% PEG400, 95% methylcellulose [MC]) or the test compound, T007 (50 mg/kg) was initiated. The animals were euthanized for necropsy and tissue collection at age 22 weeks.

The next assay relates to SD rat. Kind of assay: Efficacy study in sepsis induced acute kidney injury animal model (cecal ligation and puncture). It counts as in vivo. The following applies: 20 mg/kg 2 hours prior to surgery, 24 hours post-surgery. From the text:
Polymicrobial sepsis induced by cecal ligation and puncture (CLP) is the most frequently used model because it closely resembles the progression and characteristics of human sepsis. We used this model system to evaluate the effects of the compound T007 in sepsis. Briefly, the SD rat cecum was ligated with sterile silk thread, and then cecum was punctured twice with a needle, gently squeezed to express a small amount of fecal material, then the abdominal incision was closed. The test compound, T007 (20 mg/kg) was administered 2 hours prior to the surgery. 24 hours post-surgery, survival was recorded, plasma was collected for MCP-1 analysis, and kidneys were collected for gene expression analysis by Q-PCR.

[3] abbreviates: kidney histopathology (right kidneys), vs vehicle.

T237M hALPK1 mutant, sequence (Q96QP1 whole entry T237M): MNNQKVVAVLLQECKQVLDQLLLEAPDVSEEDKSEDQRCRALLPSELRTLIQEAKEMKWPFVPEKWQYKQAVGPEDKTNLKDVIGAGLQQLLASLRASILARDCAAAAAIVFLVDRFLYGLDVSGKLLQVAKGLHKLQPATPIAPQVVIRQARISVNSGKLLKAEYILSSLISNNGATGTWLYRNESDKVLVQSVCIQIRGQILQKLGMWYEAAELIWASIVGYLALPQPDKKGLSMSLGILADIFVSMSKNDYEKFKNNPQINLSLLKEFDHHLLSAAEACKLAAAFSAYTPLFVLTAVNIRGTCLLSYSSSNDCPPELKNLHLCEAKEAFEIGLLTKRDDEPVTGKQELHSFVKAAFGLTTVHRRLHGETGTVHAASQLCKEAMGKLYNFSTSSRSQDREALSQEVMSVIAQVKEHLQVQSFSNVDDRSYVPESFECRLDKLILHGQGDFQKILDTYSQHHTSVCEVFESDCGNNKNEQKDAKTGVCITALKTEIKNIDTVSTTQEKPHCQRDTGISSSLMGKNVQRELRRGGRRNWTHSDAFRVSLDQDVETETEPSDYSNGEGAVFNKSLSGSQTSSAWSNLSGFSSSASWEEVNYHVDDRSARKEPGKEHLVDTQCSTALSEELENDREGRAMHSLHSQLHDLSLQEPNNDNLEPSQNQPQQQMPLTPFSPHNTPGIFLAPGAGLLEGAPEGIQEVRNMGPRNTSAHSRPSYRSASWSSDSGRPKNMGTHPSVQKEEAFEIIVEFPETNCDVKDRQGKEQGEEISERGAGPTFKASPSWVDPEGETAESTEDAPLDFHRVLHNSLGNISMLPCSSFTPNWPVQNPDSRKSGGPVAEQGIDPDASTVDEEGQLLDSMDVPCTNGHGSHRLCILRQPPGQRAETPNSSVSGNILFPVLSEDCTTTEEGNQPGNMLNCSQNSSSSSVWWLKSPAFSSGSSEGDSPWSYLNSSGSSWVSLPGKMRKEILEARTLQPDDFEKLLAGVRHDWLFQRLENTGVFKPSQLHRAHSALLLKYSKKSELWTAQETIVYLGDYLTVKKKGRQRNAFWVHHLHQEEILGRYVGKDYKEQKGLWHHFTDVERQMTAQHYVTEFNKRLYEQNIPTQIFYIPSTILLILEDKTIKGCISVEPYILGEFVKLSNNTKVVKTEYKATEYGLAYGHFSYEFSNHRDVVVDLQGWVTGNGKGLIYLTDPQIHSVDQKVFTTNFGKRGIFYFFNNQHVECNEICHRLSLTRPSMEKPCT
hALPK1-V1092A, sequence (Q96QP1 whole entry V1092A): as the sequence (Q96QP1 whole entry T237M) above, with M237T, V1092A counted along it
ALPK1, sequence (Q96QP1 whole entry): as the sequence (Q96QP1 whole entry T237M) above, with M237T counted along it

With `C#Cc1cccc2sc(NC(=O)c3c(F)ccc(N4CCNCC4)c3F)nc12` [Compound T060, N-(4-ethynylbenzo[d]thiazol-2-yl)-2,6-difluoro-3-(piperazin-1-yl)benzamide], the IC50 was 44 nM on ALPK1, 1250 nM in assay [1], 2140 nM on T237M hALPK1 mutant and 5380 nM at hALPK1-V1092A.

On to `C#Cc1cc(F)cc2sc(NC(=O)c3c(F)ccc(N4CCNCC4)c3F)nc12` [Compound T064, N-(4-ethynyl-6-fluorobenzo[d]thiazol-2-yl)-2,6-difluoro-3-(piperazin-1-yl)benzamide], for which the IC50 turned out to be 51 nM at ALPK1, 1030 nM in assay [1] and 1690 nM at T237M hALPK1 mutant.

For `C#Cc1cccc2sc(NC(=O)c3c(F)cc(N4CCNC[C@@H]4C)cc3F)nc12` [Compound T054, (S)-N-(4-ethynylbenzo[d]thiazol-2-yl)-2,6-difluoro-4-(2-methylpiperazin-1-yl)benzamide], the IC50 at ALPK1 is 36 nM; in assay [1], 270 nM; on T237M hALPK1 mutant it was 225 nM; on hALPK1-V1092A, 226 nM.

`C#Cc1cccc2sc(NC(=O)c3c(F)cc(N4CCNCC4)cc3F)nc12` [Compound T007, N-(4-ethynylbenzo[d]thiazol-2-yl)-2,6-difluoro-4-(piperazin-1-yl)benzamide]: the IC50 is 4 nM against ALPK1, 470 nM in assay [1], 68.3 nM on T237M hALPK1 mutant and 409 nM at hALPK1-V1092A. Also, the “Effects on SLE by proteinuria, serum anti-dsDNA antibody levels and kidney histopathology” value in assay [2] (age 13 to 22 weeks) is listed as “statistically significant beneficial effects”. In assay [2] (age 13 to 22 weeks, vs vehicle, p=0.100), the “Urine protein score reduction in AUC” value stood at 34%. This molecule had a Crescent scores reduction in assay [2] (setting [3]) of 62%. Besides, the Glomerulus diameters reduction in assay [2] (setting [3]) came to 38%. The “Protein cast scores reduction” value in assay [2] (setting [3]) came to 70%. In addition, the “Urine protein scores reduction” value in assay [2] (mouse age 21 weeks, vs vehicle) was found to be 55%. Besides, in assay [2] (vs vehicle), the “Summed kidney scores reduction” value was 34%. Moreover, the Survival rate result in the assay on SD rat is “improved the survival rate”. Moreover, in the assay on SD rat (p<0.001 vs CLP-Vehicle), the “Plasma MCP-1 concentration by ELISA” value was “improved”. Besides, in the assay with SD rat (p<0.05 vs CLP-Vehicle), the “Kidney proinflammatory gene expression (IL6, TNFa, IL-1b, CCl2, KC) by Q-PCR” value is on record as “inhibited”.

As for `O=C(Nc1nc2c(Br)cccc2s1)c1c(F)cc(N2CCNCC2)cc1F` [Compound T019, N-(4-bromobenzo[d]thiazol-2-yl)-2,6-difluoro-4-(piperazin-1-yl)benzamide hydrochloride], the IC50 turned out to be 11 nM against ALPK1, 760 nM in assay [1], 668 nM at T237M hALPK1 mutant and 3170 nM at hALPK1-V1092A.

Take `COc1cccc2sc(NC(=O)c3c(F)cc(N4CCNCC4)cc3F)nc12` [Compound T017, 2,6-difluoro-N-(4-methoxybenzo[d]thiazol-2-yl)-4-(piperazin-1-yl)benzamide hydrochloride]: the IC50 on ALPK1 was determined as 14 nM; in assay [1], 690 nM; at T237M hALPK1 mutant, 1470 nM; at hALPK1-V1092A it was 5030 nM.

Take `C#Cc1cccc2sc(NC(=O)c3c(F)cc(N4CCN(C)CC4)cc3F)nc12` [Compound T047, N-(4-ethynylbenzo[d]thiazol-2-yl)-2,6-difluoro-4-(4-methylpiperazin-1-yl)benzamide]: the IC50 against ALPK1 amounted to 13 nM; in assay [1] it was 810 nM; on T237M hALPK1 mutant, 635 nM; on hALPK1-V1092A, 1810 nM.
